According to patent US20240285555A1, “COMPOSITIONS FOR THE TREATMENT OF COPPER DEFICIENCY AND METHODS OF USE” (priority 2018, published 2024):

Experiments:
[1] = system: yeast coa6Δ cells expressing patient mutations (W26C, W33R and E54X); experiment: Rescue of yeast coa6Δ cells expressing yeast-human chimeric COA6 with patient mutations; type: cell-based, Saccharomyces cerevisiae; details: 10 nM ES
Text: Reagents. All the copper binding compounds were purchased from Sigma-Aldrich, except Elesclomol (ES), which was purchased from Selleckchem. The yeast-human hybrid (hyCOA6) gene construct was codon optimized for yeast and synthesized using GENEART® Gene Synthesis (Life Technologies). The hybrid gene hyCOA6 was cloned into pRS416 plasmid under the control of the yeast Coa6 native promoter. COA6 patient mutations were introduced by site-directed-mutagenesis (Agilent Technologies QuikChange Lightning) using hyCOA6 as a template. All the constructs were sequenced verified.
Yeast Strains and Culture Conditions. The authenticity of yeast strains was confirmed by PCR as well as by replica plating on dropout plates. Yeast cells were cultured in standard YP growth media including YPD (1% yeast extract, 2% peptone and 2% glucose), YPGal (2% galactose), YPGE (3% glycerol+1% ethanol), or synthetic media (SC glucose). […] Growth in liquid media was measured spectrophotometrically at 600 nm.
A number of copper-binding pharmacological agents were tested for their ability to rescue respiratory deficient growth of coa6Δ cells. […] To determine the biochemical basis for the observed respiratory rescue of coa6Δ cells, the assembly and activity of CcO-containing mitochondrial respiratory chain supercomplexes was measured by native-polyacrylamide gel electrophoresis blotting and in-gel activity assay, respectively. […]

BY4741 WT cells = experiment: Respiratory growth of wild type yeast with copper chelator BCS; type: cell-based, Saccharomyces cerevisiae; details: 10 nM ES co-treatment with 20 μM BCS
Method: The cell density was measured spectrophotoretrically at the indicated time points at 600 nm. The data are representative of two independent experiments.
Yeast Strains and Culture Conditions. The authenticity of yeast strains was confirmed by PCR as well as by replica plating on dropout plates. Yeast cells were cultured in standard YP growth media including YPD (1% yeast extract, 2% peptone and 2% glucose), YPGal (2% galactose), YPGE (3% glycerol+1% ethanol), or synthetic media (SC glucose). For qualitative growth measurement, 10-fold serial dilutions of overnight cultures were spotted on YPD or YPGE plates and incubated at 30° C. and 37° C. for the indicated period. Growth in liquid media was measured spectrophotometrically at 600 nm.

[2] = system: Ctr1^−/− H9c2 cardiomyocytes; experiment: Intracellular copper levels in Ctr1 knockout H9c2 cardiomyocytes (ICP-MS); type: cell-based, rat; details: 5 nM ES
Method: FIGS. 4A and 4B illustrates the effects of ES supplementation in increasing copper levels (A) and cytochrome c oxidase subunit, COX1, and superoxide dismutase, SOD1 levels (B) in Ctrl1^−/− H9c2 rat cardiomyocytes. ATP5A is a subunit of mitochondrial ATP synthase and was used as a loading control for the Western blotting experiment.
Mammalian Cell Culture. The human control MCH46 and SCO2 patient fibroblasts as well as the rat H9c2 control and Ctr1^−/− cardiomyocytes were cultured in high glucose Dulbecco's modified Eagle's medium (DMEM) supplemented with 10% fetal bovine serum (Sigma) and 1 mM sodium pyruvate (Life Technologies). […] Whole cell protein was extracted in lysis buffer (BP-115, Boston BioProducts) supplemented with protease inhibitor cocktail (Roche Diagnostics) and the protein concentrations were determined by BCA assay (Thermo Scientific). […]
Cellular and Mitochondrial Copper Measurements. Cellular and mitochondrial copper levels were measured using the Perkin Elmer DRC II Inductively Coupled Plasma-Mass Spectrometer (ICP-MS). […] Samples were diluted in ultrapure metal-free water (TraceSELECT, Sigma) and analyzed by ICP-MS. […] Copper concentrations in mammalian cells were also measured by ICP-MS. […]

[3] = multiple human clinical trials; cited from earlier work

CN(NC(=O)CC(=O)NN(C)C(=S)c1ccccc1)C(=S)c1ccccc1 [ES, elesclomol]
rescue of respiratory growth [1]: rescued
rescue of BCS-reduced respiratory growth (BY4741 WT cells): rescued
intracellular copper levels [2]: restored
toxicity profile [3]: favorable toxicity profile
